Consider eight compounds from article PMC10525135, “Computationally Designed AMPs with Antibacterial and Antibiofilm Activity against MDR Acinetobacter baumannii” (Antibiotics, 2023).

Converted amounts (≈) assume the structure as drawn. Like-named read-outs stand apart in the source and are kept apart here. Marks after values point to notes of the source that are not given here. Residues, ends and D or L forms follow the SMILES beside them. No end group written: not given here. Some results are limits rather than exact numbers.

Data set [1] concerns A. baumannii strains AB5075, BAA-1710, -1794, and -1800. Format: cell-based, Acinetobacter baumannii. The method, then:
(§1) Minimum inhibitory concentration (n = 3) was performed according to the CLSI protocols with a minor modification, in which Difco Mueller Hinton broth (BD 275730, Franklin Lakes, NJ, USA) was used instead of cation-adjusted Mueller Hinton broth following Wiegand et al.’s standardized protocol for testing AMPs. Bacteria were grown overnight in an opaque colony, and the concentration was determined using McFarland’s technique. An aliquot of 50 µL of 1 × 10^6 CFU/mL of bacteria was incubated with a decreasing series of peptide concentration to achieve a final bacterial concentration of 5 × 10^5 CFU/mL at 37 °C 5% CO2 for 20–24 h in Difco Mueller Hinton broth. Dilutions were performed in a 96-well polypropylene plate (Corning 3879, Corning, NY, USA). This is critical to avoid peptide binding to the plate. Results were obtained by measuring bacterial growth at OD600 nm. LL-37 and polymyxin B were used as positive controls. Samples containing only the medium and medium with peptides were used as the sterility controls and samples containing only bacteria in MHB served as the growth control. Each experiment was performed twice, and one representative experiment is shown.

A further data set relates to A. baumannii BAA-1710. Format: cell-based, Acinetobacter baumannii. The method, then:
as §1

In the next data set the test system is A. baumannii BAA-1794. Format: cell-based, Acinetobacter baumannii. The procedure: as §1
The subject of data set [2] is AB5075 pre-formed (24 h) biofilm. Format: cell-based, Acinetobacter baumannii. The procedure:
The MBEC assay measures the lowest concentration of an antimicrobial agent that can eradicate established biofilms. Using the MBEC assay in the Biofilm Inoculator 96-well base (Innovotech Cat #1911, Edmonton, AB, Canada) and following the manufacturer’s protocol, 150 µL (n = 6) of 1 × 10^6 CFU/mL of AB5075 in TSB was incubated for 24 h at 37 °C at 110 rpm for biofilm formation. The lid containing pegs was rinsed with sterile PBS for 5 min, and then the lid was placed in a peptide challenge polypropylene 96-well plate containing a decreasing series of drug concentrations and incubated for 24 h at 37 °C at 110 rpm. Pegs were washed three times with tap water, heat-fixed for 70 °C for 1 h, and stained with 0.1% crystal violet for 15 min. Excess stain was rinsed off with tap water and allowed to dry. Stained pegs were resolubilized with 200 µL of 33% glacial acetic acid. OD590 was obtained to measure the remaining biofilm. Pegs with only bacteria served as the growth control and 100% biofilm control. Media alone and media with a peptide/drug served as the sterility controls. […] The experiment was performed twice.

Data set [3] deals with defibrinated human red blood cells. Kind of data set: Hemolysis. Format: cell-based. To be noted: 2% hRBC in PBS, 1 h 37 °C, OD540, relative to Triton X-100, n = 3. The method, then: To measure the hemolytic activity of peptides, 2% human red blood cells were added to various dilutions of peptide reconstituted in PBS in a sterile U-bottom polypropylene 96-well plate following a protocol developed in our laboratory Briefly, defibrinated human blood was obtained from de-identified healthy donors from BioIVT (Westbury, NY, USA). An aliquot (1 mL) of blood was centrifuged at 1600× g for 10 min and plasma was discarded, and then 1 mL of sterile 1× PBS (HyClone) was used to wash red blood cells at least three times. In the last wash step, the supernatant was discarded, and the pallet was resuspended with 750 µL of sterile PBS. RBC suspension (2% RBC) was prepared by adding 200 µL of washed RBCs to 9.8 mL of sterile 1× PBS. A total of 50 µL of 2% RBCs were added to each well (n = 3) containing diluted peptides, resulting in a final peptide concentration of 100, 10, and 1 μg/mL. A total of 2% RBCs with 1× PBS alone served as the negative control (no peptide), and 2% RBC in Triton X-100 served as the positive control. The plate was incubated for 1 h at 37 °C and then centrifuged at 1000 rpm for 2 min. The supernatant was transferred to a fresh 96-well plate (tissue culture-treated Falcon 353072) and read at OD540. The percentage of hemolysis was calculated based on the 100% hemolysis control (Triton X-100). The experiment was repeated twice.

Data set [4] has as its system A. baumannii BAA-1800 biofilm. The method, then:
The MBIC assay measures the lowest concentration of a compound that inhibits the biofilm formation of an organism. A series of decreasing peptide concentrations starting from 64 μg/mL to 0.25 μg/mL (100 µL) were incubated with 1 × 10^5 CFU of A. baumannii in 100 µL of Tryptic Soy broth (TSB) in a polystyrene 96-well plate (Falcon 353072, Corning, NY, USA) for 24 h at 37 °C to assess biofilm formation inhibition, as described previously with minor modifications. After the incubation of bacteria with AMPs, OD600 nm was measured for approximate bacterial growth. Media were carefully removed, and wells (n = 3) were rinsed with tap water. Plates were heat-fixed at 70 °C for 1 h, and 200 µL of 0.1% crystal violet diluted in deionized water were added to wells and allowed to incubate for 15 min. Excess stain was rinsed off with tap water, and the plates were air-dried. After that, 200 µL of 33% glacial acetic acid was added to resolubilize the stain, and biofilm mass was measured by a spectrophotometric reading at OD590. Bacteria alone (no treatment) served as the 100% biofilm control, and media alone and media with a peptide/drug were used as the sterility control and the 0% biofilm control.

Another data set deals with AB5075. The method, then: Bacteria were grown in 1 mL of MHB for 24 h. Experimental tubes that show growth in the presence of peptide/drug concentration were diluted 1:100. […] Colistin is reported to induce resistance within approximately 5–7 days for A. baumannii.
Another data set relates to A. baumannii BAA-1800. Format: cell-based, Acinetobacter baumannii. The procedure:
as §1

Data set [5] has as its system A. baumannii AB5075 (MRSN959). Format: cell-based, Acinetobacter baumannii. The procedure: as §1
Setting [6] is: summary over MDR A. baumannii strains of Table 3.
Where [7] appears, read: A. baumannii BAA-1710, Difco Mueller Hinton broth, 5 × 10^5 CFU/mL, 37 °C 5% CO2, 20–24 h, OD600, n = 3.
Setting [8] is: A. baumannii BAA-1794, Difco Mueller Hinton broth, 5 × 10^5 CFU/mL, 37 °C 5% CO2, 20–24 h, OD600, n = 3.
Where [9] appears, read: MBEC100, AB5075 24 h pre-formed biofilm on pegs, 24 h challenge, crystal violet OD590, n = 6.
Where [10] appears, read: A. baumannii BAA-1800, TSB, 24 h 37 °C, crystal violet.
Setting [11] is: A. baumannii BAA-1800, TSB, polystyrene plate, 24 h 37 °C, crystal violet OD590, n = 3.
The mark [12] stands for this setting: AB5075 passaged with subinhibitory drug.

The MIC is the smallest concentration in the dilution series that meets the test's criterion for growth inhibition. Read a high MIC as a need for much substance. Consider `CC[C@H](C)[C@H](NC(=O)[C@H](CCCCN)NC(=O)[C@H](CCC(=O)O)NC(=O)[C@H](CCCCN)NC(=O)[C@H](CO)NC(=O)[C@H](CCCCN)NC(=O)[C@H](CCCNC(=N)N)NC(=O)[C@H](Cc1ccccc1)NC(=O)[C@H](Cc1ccccc1)NC(=O)[C@H](CC(=O)O)NC(=O)CNC(=O)[C@H](CC(C)C)NC(=O)[C@@H](N)CC(C)C)C(=O)NCC(=O)N[C@@H](CCCCN)C(=O)N[C@@H](CCC(=O)O)C(=O)N[C@@H](Cc1ccccc1)C(=O)N[C@@H](CCCCN)C(=O)N[C@@H](CCCNC(=N)N)C(=O)N[C@H](C(=O)N[C@H](C(=O)N[C@@H](CCC(N)=O)C(=O)N[C@@H](CCCNC(=N)N)C(=O)N[C@H](C(=O)N[C@@H](CCCCN)C(=O)N[C@@H](CC(=O)O)C(=O)N[C@@H](Cc1ccccc1)C(=O)N[C@@H](CC(C)C)C(=O)N[C@@H](CCCNC(=N)N)C(=O)N[C@@H](CC(N)=O)C(=O)N[C@@H](CC(C)C)C(=O)N[C@H](C(=O)N1CCC[C@H]1C(=O)N[C@@H](CCCNC(=N)N)C(=O)N[C@H](C(=O)N[C@@H](CCC(=O)O)C(=O)N[C@@H](CO)C(=O)O)[C@@H](C)O)C(C)C)[C@@H](C)CC)C(C)C)[C@@H](C)CC` [LL-37], for which the “MIC across the tested strains” value in data set [1] (setting [6]) was 8 to 32 µg/mL. Also, the minimum inhibitory concentration (MIC) against A. baumannii BAA-1710 (setting [7]) is 32 µg/mL (≈ 7.12 µM); in the data set on A. baumannii BAA-1794 (setting [8]), 16 to 32 µg/mL; in the data set with A. baumannii BAA-1794 (A. baumannii BAA-1794, experiment shown in Figure S4), 32 µg/mL (≈ 7.12 µM). In addition, the MBEC50 in [2] (AB5075 24 h pre-formed biofilm, crystal violet) worked out at 4 µg/mL. In data set [2] (setting [9]), the MBEC is on record as approximately 32 µg/mL. Moreover, the Hemolysis in data set [3] (10 µg/mL) turned out to be 5.4%; in [3] (100 µg/mL) it was 22%. The MBIC50 in data set [4] (setting [10]) is given as ~ 32 µg/mL. The compound also yielded an MBIC100 in [4] (setting [11]) of 64 µg/mL.
Regarding `CC[C@H](C)CCCCC(=O)N[C@@H](CCN)C(=O)N[C@H](C(=O)N[C@@H](CCN)C(=O)N[C@H]1CCNC(=O)[C@H]([C@@H](C)O)NC(=O)[C@H](CCN)NC(=O)[C@H](CCN)NC(=O)[C@H](CC(C)C)NC(=O)[C@@H](CC(C)C)NC(=O)[C@H](CCN)NC1=O)[C@@H](C)O` [colistin] (HELM PEPTIDE1{[CC[C@H](C)CCCCC(=O)[*:2]].[Dab].T.[Dab].[Dab].[Dab].[dL].L.[Dab].[Dab].T}$PEPTIDE1,PEPTIDE1,5:R3-11:R2$$$V2.0; N-terminus assumed; bridges inferred), the “MIC fold change reached, compared to the initial growth-inhibitory concentration” value against AB5075 (AB5075, exposure for 15 days) is reported as 512 × MIC. Further, the MIC before exposure in the data set on AB5075 (AB5075, initial MIC (passage 0)) is 0.5 µg/mL (≈ 0.428 µM). For the same compound, in the data set with AB5075 (setting [12]), the “MIC after the fifth day of exposure” value is recorded as 64 µg/mL and the “MIC fold change after the fifth day” value turned out to be 128 MIC fold.
For FLKKIWKLLGKLL-NH2 [HRZN-16], the “MIC across the tested strains” value in [1] (BAA-1710) stood at 16 µg/mL. The MIC (with A. baumannii BAA-1800 (BAA-1800); in the data set on A. baumannii BAA-1710 (BAA-1710); in data set [5] (AB5075 (MRSN959)); in the data set with A. baumannii BAA-1794 (BAA-1794)) was 16 µg/mL each time.
As to FLPWISKFLGKIL-NH2 [HRZN-15], the “MIC across the tested strains” value in data set [1] (BAA-1710) is listed as 4 µg/mL. For the same compound, in the data set with A. baumannii BAA-1800 (BAA-1800), the MIC came out at 4 µg/mL. The minimal inhibitory concentration (MIC) against A. baumannii BAA-1710 (BAA-1710) is recorded as 4 µg/mL. The compound also registered a minimum inhibitory concentration (MIC) in the data set on A. baumannii BAA-1794 (BAA-1794) of 4 µg/mL. In data set [2] (24 h), this compound displayed an MBEC of 16 µg/mL and an MBEC50 of 8 µg/mL. For the same compound, the “MIC at the 10th passage” value in the data set on AB5075 (AB5075 passaged with peptide) was determined as 8 µg/mL. For the same compound, in data set [4] (BAA-1800, 24 h), the MBIC50 was ~ 4 µg/mL and the MBIC100 is listed as 8 µg/mL.
Regarding FLWRISKFLGKKL-NH2 [HRZN-13], the “MIC across the tested strains” value in data set [1] (setting [6]) lay within 32 to 64 µg/mL. For the same compound, the MIC in the data set with A. baumannii BAA-1800 (A. baumannii BAA-1800, Difco Mueller Hinton broth, 5 × 10^5 CFU/mL, 37 °C 5% CO2, 20–24 h, OD600, n = 3) stood at 64 µg/mL; against A. baumannii BAA-1710 (setting [7]), 32 µg/mL; in data set [5] (A. baumannii AB5075 (MRSN959), Difco Mueller Hinton broth, 5 × 10^5 CFU/mL, 37 °C 5% CO2, 20–24 h, OD600, n = 3) it was 32 µg/mL; with A. baumannii BAA-1794 (setting [8]), 64 µg/mL. The Hemolysis in data set [3] (100 µg/mL) is 0.7%.
For the compound FLWRISKFLGRKL-NH2 [HRZN-14], in [1] (BAA-1710), the “MIC across the tested strains” value fell in the range of 16 to 64 µg/mL. Moreover, the MIC with A. baumannii BAA-1800 (BAA-1800) is reported as 32 µg/mL; against A. baumannii BAA-1710 (BAA-1710) it was 32 µg/mL; with A. baumannii BAA-1794 (BAA-1794), 64 µg/mL.
Consider KLWKLLKKLGRLL-NH2 [HRZN-17], for which, in data set [1] (BAA-1710), the “MIC across the tested strains” value is 32 µg/mL. The MIC (against A. baumannii BAA-1800 (BAA-1800); in the data set with A. baumannii BAA-1710 (BAA-1710); in [5] (AB5075 (MRSN959)); with A. baumannii BAA-1794 (BAA-1794)) was 32 µg/mL in each case.
Compound VRLIVAVRIWRR-NH2 [IDR-1018] displayed an MBEC in [2] (setting [9]) of more than 32 µg/mL. In addition, the MBIC50 in data set [4] (setting [10]) was ~ 32 µg/mL. In addition, the MBIC100 in [4] (setting [11]) is >64 * µg/mL.
